Assay results from patent US20190119193A1, “COMPOSITION FOR REGULATING PLANT GROWTH, METHOD FOR TREATING PLANTS THEREWITH, AND ACTIVE INGREDIENT THEREOF” (Ivan Aleksandrovich Starikov, priority 2016, published 2019).

Assays:
Type in all cases: in vivo
Conditions in all cases: for Germinative energy: day 3; for Germinative capacity / Number of lateral roots / Sprout height / Taproot length: day 7
[1] = test system: tomato seeds (“Volgogradets” variety); assay: Laboratory tests of DMOA and DEOA for tomato seeds
Method: (§1) After that DMOA and DEOA were dissolved in dimethyl sulfoxide to give solutions of 10 g/L concentration, then water was added to give aqueous solutions of DMOA with concentrations of 5.5·10^−5 M, 5.5·10^−6 M, 5.5·10^−7 M, 5.5·10^−8 M, 5.5·10^−9 M and DEOA with concentrations of 4.8·10^−5 M, 4.8·10^−6 M, 4.8·10^−7 M, 4.8·10^−8 M, 4.8·10^−9 M.
(§2) The obtained aqueous solutions of DMOA and DEOA were tested in the Scientific Center of Soil-Ecological Reasearch of the Federal State-Funded Educational Institution of Higher Education “Russian State Agrarian University—Moscow Agricultural Academy named after K. A. Timiryazev” (Moscow, 2015) according to the method described by T. A. Sergeeva (Method of laboratory testing of herbicides, Plant protection, 1963, No. 2, pp. 42-43). The primary laboratory screening of DMOA and DEOA was carried out on the seeds of five different crops: sunflower of “Voronezh 638” variety, soybean of “Vilana” variety, alfalfa of “Vega” variety, cucumber of “Nezhinsky” variety and tomato of “Volgogradets” variety.
(§3) Water was used as a reference.
(§4) A single experiment was carried out in a Petri dish. A circle of filter paper was laid at the bottom of the dish and treated with 5 ml of the work solution selected for the experiment. After that 25 seeds were uniformly laid on the surface of the treated filter paper. The Petri dish was kept at a temperature of 21-23° C. with illumination by fluorescent lamps for 7 days. The fourfold replication of the experiment within a single variant was applied.
(§5) The experiment identified the number and percentage of normally germinated seeds on day 3 (germinative energy) and on day 7 (germinative capacity) after the beginning of the experiment. On day 7 the main biometric parameters were also measured: sprout height (mm), taproot length (mm) and number of lateral roots (pcs).
(§6) The results were processed with the method of variance analysis with the help of STRAZ software in order to get the LSD0.05 (least significant difference between the test results on 5% significance level).

[2] = test system: alfalfa seeds (“Vega” variety); assay: Laboratory tests of DMOA and DEOA for alfalfa seeds
Method: as §1, §2, §3, §4, §5, §6

[3] = test system: sunflower seeds (“Voronezh 638” variety); assay: Laboratory tests of DMOA and DEOA for sunflower seeds
Method: as §1, §2, §3, §4, §5, §6

[4] = test system: soybean seeds (“Vilana” variety); assay: Laboratory tests of DMOA and DEOA for soybean seeds
Method: as §1, §2, §3, §4, §5, §6

With “Sodium salt of dimethyl ester of oxaloacetic acid [DMOA]” the Germinative energy ([1]; 5.5 · 10^−5 M) was 93%, the Germinative capacity ([1]; 5.5 · 10^−5 M) was 95% and the “Number of lateral roots” value ([1]; 5.5 · 10^−5 M) was 0.2 pcs. For the same substance, the Sprout height ([1]; 5.5 · 10^−5 M) was 25.9 mm, the Taproot length ([1]; 5.5 · 10^−5 M) was 83.2 ↑ mm and the Germinative energy ([1]; 5.5 · 10^−6 M) was 88%. The Germinative capacity ([1]; 5.5 · 10^−6 M) was 90%, the “Number of lateral roots” value ([1]; 5.5 · 10^−6 M) was 0.5 ↑ pcs and the Sprout height ([1]; 5.5 · 10^−6 M) was 24.6 mm. The Taproot length ([1]; 5.5 · 10^−6 M) was 79.8 mm, the Germinative energy ([1]; 5.5 · 10^−7 M) was 88% and the Germinative capacity ([1]; 5.5 · 10^−7 M) was 98 ↑ %. The “Number of lateral roots” value ([1]; 5.5 · 10^−7 M) was 0.6 ↑ pcs, the Sprout height ([1]; 5.5 · 10^−7 M) was 23.7 mm and the Taproot length ([1]; 5.5 · 10^−7 M) was 74.5 mm. The Germinative energy ([1]; 5.5 · 10^−8 M) was 98 ↑ %, the Germinative capacity ([1]; 5.5 · 10^−8 M) was 98 ↑ % and the “Number of lateral roots” value ([1]; 5.5 · 10^−8 M) was 0.1 pcs. For the same substance, the Sprout height ([1]; 5.5 · 10^−8 M) was 23.4 mm, the Taproot length ([1]; 5.5 · 10^−8 M) was 83.6 ↑ mm and the Germinative energy ([1]; 5.5 · 10^−9 M) was 88%. For the same substance, the Germinative capacity ([1]; 5.5 · 10^−9 M) was 90%, the “Number of lateral roots” value ([1]; 5.5 · 10^−9 M) was 0.7 ↑ pcs and the Sprout height ([1]; 5.5 · 10^−9 M) was 24.4 mm. The Taproot length ([1]; 5.5 · 10^−9 M) was 86.9 ↑↑ mm, the Germinative energy ([2]; 5.5 · 10^−5 M) was 93% and the Germinative capacity ([2]; 5.5 · 10^−5 M) was 100 ↑ %. For the same substance, the “Number of lateral roots” value ([2]; 5.5 · 10^−5 M) was 0.6 ↑ pcs, the Sprout height ([2]; 5.5 · 10^−5 M) was 30.0 mm and the Taproot length ([2]; 5.5 · 10^−5 M) was 28.1 mm. The Germinative energy ([2]; 5.5 · 10^−6 M) was 88%, the Germinative capacity ([2]; 5.5 · 10^−6 M) was 100 ↑ % and the “Number of lateral roots” value ([2]; 5.5 · 10^−6 M) was 0.7 ↑ pcs. It also gave a Sprout height ([2]; 5.5 · 10^−6 M) of 29.0 mm, a Taproot length ([2]; 5.5 · 10^−6 M) of 30.9 mm and a Germinative energy ([2]; 5.5 · 10^−7 M) of 88%. The Germinative capacity ([2]; 5.5 · 10^−7 M) was 93%, the “Number of lateral roots” value ([2]; 5.5 · 10^−7 M) was 0.6 ↑ pcs and the Sprout height ([2]; 5.5 · 10^−7 M) was 28.9 mm. The Taproot length ([2]; 5.5 · 10^−7 M) was 31.3 mm, the Germinative energy ([2]; 5.5 · 10^−8 M) was 98 ↑ % and the Germinative capacity ([2]; 5.5 · 10^−8 M) was 93%. The “Number of lateral roots” value ([2]; 5.5 · 10^−8 M) was 0.5 ↑ pcs, the Sprout height ([2]; 5.5 · 10^−8 M) was 28.9 mm and the Taproot length ([2]; 5.5 · 10^−8 M) was 31.2 mm. For the same substance, the Germinative energy ([2]; 5.5 · 10^−9 M) was 88%, the Germinative capacity ([2]; 5.5 · 10^−9 M) was 100 ↑ % and the “Number of lateral roots” value ([2]; 5.5 · 10^−9 M) was 0.6 ↑ pcs. It also gave a Sprout height ([2]; 5.5 · 10^−9 M) of 30.1 mm, a Taproot length ([2]; 5.5 · 10^−9 M) of 35.6 mm and a Germinative energy ([3]; 5.5 · 10^−5 M) of 80%. For the same substance, the Germinative capacity ([3]; 5.5 · 10^−5 M) was 90%, the “Number of lateral roots” value ([3]; 5.5 · 10^−5 M) was 9.7 pcs and the Sprout height ([3]; 5.5 · 10^−5 M) was 23.8 mm. The Taproot length ([3]; 5.5 · 10^−5 M) was 35.2 mm, the Germinative energy ([3]; 5.5 · 10^−6 M) was 83% and the Germinative capacity ([3]; 5.5 · 10^−6 M) was 93%. For the same substance, the “Number of lateral roots” value ([3]; 5.5 · 10^−6 M) was 8.5 pcs, the Sprout height ([3]; 5.5 · 10^−6 M) was 23.0 mm and the Taproot length ([3]; 5.5 · 10^−6 M) was 46.4 ↑ mm. The Germinative energy ([3]; 5.5 · 10^−7 M) was 90 ↑ %, the Germinative capacity ([3]; 5.5 · 10^−7 M) was 93% and the “Number of lateral roots” value ([3]; 5.5 · 10^−7 M) was 8.2 pcs. The Sprout height ([3]; 5.5 · 10^−7 M) was 26.9 ↑ mm, the Taproot length ([3]; 5.5 · 10^−7 M) was 29.8 ↓ mm and the Germinative energy ([3]; 5.5 · 10^−8 M) was 93 ↑ %. The Germinative capacity ([3]; 5.5 · 10^−8 M) was 91%, the “Number of lateral roots” value ([3]; 5.5 · 10^−8 M) was 7.8 pcs and the Sprout height ([3]; 5.5 · 10^−8 M) was 28.8 ↑↑ mm. For the same substance, the Taproot length ([3]; 5.5 · 10^−8 M) was 38.1 mm, the Germinative energy ([3]; 5.5 · 10^−9 M) was 87% and the Germinative capacity ([3]; 5.5 · 10^−9 M) was 93%. For the same substance, the “Number of lateral roots” value ([3]; 5.5 · 10^−9 M) was 11.6 ↑ pcs, the Sprout height ([3]; 5.5 · 10^−9 M) was 27.8 mm and the Taproot length ([3]; 5.5 · 10^−9 M) was 51.9 ↑ mm. The Germinative energy ([4]; 5.5 · 10^−5 M) was 78%, the Germinative capacity ([4]; 5.5 · 10^−5 M) was 89% and the “Number of lateral roots” value ([4]; 5.5 · 10^−5 M) was 0.2 pcs. The Sprout height ([4]; 5.5 · 10^−5 M) was 16.0 mm, the Taproot length ([4]; 5.5 · 10^−5 M) was 35.5 mm and the Germinative energy ([4]; 5.5 · 10^−6 M) was 82%. The Germinative capacity ([4]; 5.5 · 10^−6 M) was 97%, the “Number of lateral roots” value ([4]; 5.5 · 10^−6 M) was 0.0 pcs and the Sprout height ([4]; 5.5 · 10^−6 M) was 19.0 ↑ mm. For the same substance, the Taproot length ([4]; 5.5 · 10^−6 M) was 37.6 mm, the Germinative energy ([4]; 5.5 · 10^−7 M) was 65% and the Germinative capacity ([4]; 5.5 · 10^−7 M) was 90%. The “Number of lateral roots” value ([4]; 5.5 · 10^−7 M) was 0.0 pcs, the Sprout height ([4]; 5.5 · 10^−7 M) was 19.0 ↑ mm and the Taproot length ([4]; 5.5 · 10^−7 M) was 39.5 mm. For the same substance, the Germinative energy ([4]; 5.5 · 10^−8 M) was 77%, the Germinative capacity ([4]; 5.5 · 10^−8 M) was 87% and the “Number of lateral roots” value ([4]; 5.5 · 10^−8 M) was 0.0 pcs. For the same substance, the Sprout height ([4]; 5.5 · 10^−8 M) was 19.5 ↑↑ mm, the Taproot length ([4]; 5.5 · 10^−8 M) was 38.4 mm and the Germinative energy ([4]; 5.5 · 10^−9 M) was 72%. The Germinative capacity ([4]; 5.5 · 10^−9 M) was 83%, the “Number of lateral roots” value ([4]; 5.5 · 10^−9 M) was 0.0 pcs and the Sprout height ([4]; 5.5 · 10^−9 M) was 17.8 ↑ mm. The Taproot length ([4]; 5.5 · 10^−9 M) was 37.0 mm.
